{"source": "patent US12325708B2", "about": "“Adenosine 2 receptor antagonists” (Nektar Therapeutics, priority 2019, dated 2025)", "key": {"[1]": {"assay": "Plasma pharmacokinetic parameters following intravenous (IV) or oral (PO) administration in rats", "assay_type": "in vivo, Sprague-Dawley rats", "details": "rat; for Vd: read-out: Vss obs; for AUC / bioavailability: oral; for Total clearance as % liver blood flow: IV; for Plasma concentrations post 8 hr: IV 0.5 mg/kg and PO 2.5 mg/kg; for F: PO 2.5 mg/kg vs IV 0.5 mg/kg", "how_it_was_run": "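Fasted male Sprague-Dawley rats (230-250 g, n=2/group), dosed 0.5 mg/kg IV (jugular) or 2.5 mg/kg PO gavage in water. Plasma sampled 2–1440 min, analyzed by LC-MS/MS; non-compartmental analysis with nominal doses/times gave AUC, Cmax, Tmax, CL, Vss, MRTlast, F.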"}, "[2]": {"assay": "Brain-to-plasma ratio (B/P) after administration", "assay_type": "in vivo, Sprague-Dawley rats", "details": "Table 2, brain-to-plasma ratio at 1 h", "how_it_was_run": "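Plasma pharmacokinetic parameters determined after oral (PO) administration; brain-to-plasma concentration ratio (B/P) used as the brain penetration measure.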"}, "A2A receptor": {"target": "T1, A2A receptor (Homo sapiens, UniProt P29274)", "T1 construct": "purchased", "T1 sequence (P29274 whole entry)": "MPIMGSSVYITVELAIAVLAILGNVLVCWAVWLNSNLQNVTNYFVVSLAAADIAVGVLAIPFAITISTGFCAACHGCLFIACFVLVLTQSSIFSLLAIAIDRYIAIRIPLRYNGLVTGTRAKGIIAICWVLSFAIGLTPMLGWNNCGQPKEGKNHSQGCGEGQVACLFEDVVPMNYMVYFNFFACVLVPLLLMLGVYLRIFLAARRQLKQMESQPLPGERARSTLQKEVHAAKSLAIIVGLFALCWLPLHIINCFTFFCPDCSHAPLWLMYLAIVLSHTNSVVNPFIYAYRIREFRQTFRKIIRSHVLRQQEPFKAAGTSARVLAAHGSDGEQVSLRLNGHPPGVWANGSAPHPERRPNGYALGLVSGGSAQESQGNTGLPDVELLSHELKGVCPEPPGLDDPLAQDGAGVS", "assay": "Radioligand receptor binding assay, A2A receptor", "details": "cell membranes overexpressing A2A receptor, read-out: Potency Ki A2A", "how_it_was_run": "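Membranes from cell lines overexpressing human A2A, A1 or A3 receptors were incubated 60 min at room temperature with the receptor-appropriate [3H] tracer. After filtration and washing in 50 mM Tris HCl pH 7.5, bound label was counted by scintillation. IC50 came from nonlinear regression and Ki from the Cheng-Prusoff equation.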"}, "[3]": {"details": "male, Sprague-Dawley, plasma, intravenous, 0.5 mg/kg, Table 2 summary of Example 27, values marked 1 are the average of experiments"}, "[4]": {"details": "male, Sprague-Dawley, plasma, iv, 0.5 mg/kg, IV 0.5 mg/kg, injectable water"}, "[5]": {"details": "male, Sprague-Dawley, plasma, 2.5 mg/kg, Table 2 summary of Example 27, values marked 1 are the average of experiments"}, "[6]": {"details": "male, Sprague-Dawley, plasma, po, 2.5 mg/kg, PO 2.5 mg/kg via gavage, injectable water"}, "[7]": {"details": "male, Sprague-Dawley, plasma, po, 2.5 mg/kg, PO 2.5 mg/kg via gavage, injectable water, read-out: Cmax"}, "[8]": {"details": "male, Sprague-Dawley, plasma, po, 2.5 mg/kg, PO 2.5 mg/kg via gavage, injectable water, read-out: Tmax"}, "[9]": {"details": "IV 0.5 mg/kg, injectable water, listed as Compound 1 (#1), 0.5 mg/kg"}, "[10]": {"details": "IV 0.5 mg/kg, injectable water, listed as Compound 1 (#2), 0.5 mg/kg"}, "[11]": {"details": "PO 2.5 mg/kg via gavage, injectable water, listed as Compound 1 (#1), 2.5 mg/kg"}, "[12]": {"details": "PO 2.5 mg/kg via gavage, injectable water, listed as Compound 1 (#2), 2.5 mg/kg"}, "[13]": {"details": "IV 0.5 mg/kg, injectable water, listed as Compound 4 (#2), 0.5 mg/kg"}, "[14]": {"details": "PO 2.5 mg/kg via gavage, injectable water, listed as Compound 4 (#2), 2.5 mg/kg"}}, "note": "Like-named read-outs stand apart in the source and are kept apart here.", "data": [{"compound": "COCCOc1ccc(N2CCN(CCN(C)c3cc4nc(-c5ncco5)nn4c(N)n3)CC2)cc1", "note": "[Compound 1, N^7-(2-{4-[4-(2-methoxyethoxy)phenyl]piperazin-1-yl}ethyl)-N^7-methyl-2-(1,3-oxazol-2-yl)[1,2,4]triazolo[1,5-c]pyrimidine-5,7-diamine]", "values": [{"measurement": "clearance", "setting": "[1]; [3]", "value": 31, "unit": "mL/min/kg"}, {"measurement": "AUC(0-inf)", "setting": "[1]; [4]", "value": 340, "unit": "ng·h/mL"}, {"measurement": "AUC(0-t)", "setting": "[1]; [4]", "value": 335, "unit": "ng·h/mL"}, {"measurement": "MRT last", "setting": "[1]; [4]", "value": "84.6 to 87", "unit": "min"}, {"measurement": "clearance", "setting": "[1]; [4]", "value": "24.6 to 36.1", "unit": "mL/min/kg"}, {"measurement": "Cmax", "setting": "[1]; male, Sprague-Dawley, plasma, iv, 0.5 mg/kg, IV 0.5 mg/kg, injectable water, read-out: Cmax", "value": 311, "unit": "ng/mL"}, {"measurement": "Tmax", "setting": "[1]; male, Sprague-Dawley, plasma, iv, 0.5 mg/kg, IV 0.5 mg/kg, injectable water, read-out: Tmax", "value": 2, "unit": "min"}, {"measurement": "Vd", "setting": "[1]; [4]", "value": "2.17 to 3.44", "unit": "L/kg"}, {"measurement": "AUC", "setting": "[1]; [5]", "value": 969, "unit": "ng·h/mL"}, {"measurement": "bioavailability", "setting": "[1]; [5]", "value": 71, "unit": "%"}, {"measurement": "AUC(0-inf)", "setting": "[1]; [6]", "value": 1280, "unit": "ng·h/mL"}, {"measurement": "AUC(0-t)", "setting": "[1]; [6]", "value": 1220, "unit": "ng·h/mL"}, {"measurement": "Cmax", "setting": "[1]; [7]", "value": "242 to 367", "unit": "ng/mL"}, {"measurement": "Tmax", "setting": "[1]; [8]", "value": "45 to 60", "unit": "min"}, {"measurement": "Total clearance as % liver blood flow", "setting": "[1]", "value": "40-60 % liver blood flow"}, {"measurement": "Plasma concentrations post 8 hr", "setting": "[1]", "value": "below the limit of quantitation"}, {"measurement": "AUCinf", "setting": "[1]; [9]", "value": 233, "unit": "ng·h/mL"}, {"measurement": "AUClast", "setting": "[1]; [9]", "value": 228, "unit": "ng·h/mL"}, {"measurement": "CL", "setting": "[1]; [9]", "value": 36.1, "unit": "mL/min/kg"}, {"measurement": "Cmax", "setting": "[1]; [9]", "value": 207, "unit": "ng/mL"}, {"measurement": "MRTlast", "setting": "[1]; [9]", "value": 84.6, "unit": "min"}, {"measurement": "Vss obs", "setting": "[1]; [9]", "value": 3.44, "unit": "L/kg"}, {"measurement": "CL", "setting": "[1]; [10]", "value": 24.6, "unit": "mL/min/kg"}, {"measurement": "MRTlast", "setting": "[1]; [10]", "value": 87, "unit": "min"}, {"measurement": "Vss obs", "setting": "[1]; [10]", "value": 2.17, "unit": "L/kg"}, {"measurement": "AUCinf", "setting": "[1]; [11]", "value": 777, "unit": "ng·h/mL"}, {"measurement": "AUClast", "setting": "[1]; [11]", "value": 718, "unit": "ng·h/mL"}, {"measurement": "Cmax", "setting": "[1]; [11]", "value": 242, "unit": "ng/mL"}, {"measurement": "Tmax", "setting": "[1]; [11]", "value": 45, "unit": "min"}, {"measurement": "Cmax", "setting": "[1]; [12]", "value": 367, "unit": "ng/mL"}, {"measurement": "Tmax", "setting": "[1]; [12]", "value": 60, "unit": "min"}, {"measurement": "F", "setting": "[1]; listed as Compound 1 (#1)", "value": 66.8, "unit": "%"}, {"measurement": "F", "setting": "[1]; listed as Compound 1 (#2)", "value": 75.5, "unit": "%"}, {"measurement": "B/P (1 h)", "setting": "[2]", "value": "0.06^1"}, {"measurement": "Ki", "setting": "A2A receptor", "value": 6, "unit": "nM"}]}, {"compound": "COCCOc1cnc(N2CCN(CCN(C)c3cc4nc(-c5ncco5)nn4c(N)n3)CC2)c(F)c1", "note": "[Compound 4, N^7-(2-{4-[3-fluoro-5-(2-methoxyethoxy)pyridin-2-yl]piperazin-1-yl}ethyl)-N^7-methyl-2-(1,3-oxazol-2-yl)[1,2,4]triazolo[1,5-c]pyrimidine-5,7-diamine]", "values": [{"measurement": "clearance", "setting": "[1]; [3]", "value": 34, "unit": "mL/min/kg"}, {"measurement": "AUC(0-inf)", "setting": "[1]; [4]", "value": 251, "unit": "ng·h/mL"}, {"measurement": "AUC(0-t)", "setting": "[1]; [4]", "value": 249, "unit": "ng·h/mL"}, {"measurement": "MRT last", "setting": "[1]; [4]", "value": 53.4, "unit": "min"}, {"measurement": "clearance", "setting": "[1]; [4]", "value": "26.8 to 33.6", "unit": "mL/min/kg"}, {"measurement": "Vd", "setting": "[1]; [4]", "value": 1.93, "unit": "L/kg"}, {"measurement": "AUC", "setting": "[1]; [5]", "value": 898, "unit": "ng·h/mL"}, {"measurement": "bioavailability", "setting": "[1]; [5]", "value": 78, "unit": "%"}, {"measurement": "AUC(0-inf)", "setting": "[1]; [6]", "value": 978, "unit": "ng·h/mL"}, {"measurement": "AUC(0-t)", "setting": "[1]; [6]", "value": 898, "unit": "ng·h/mL"}, {"measurement": "MRT last", "setting": "[1]; [6]", "value": 153, "unit": "min"}, {"measurement": "Cmax", "setting": "[1]; [7]", "value": 231, "unit": "ng/mL"}, {"measurement": "Tmax", "setting": "[1]; [8]", "value": "30 to 45", "unit": "min"}, {"measurement": "Total clearance as % liver blood flow", "setting": "[1]", "value": "45-56 % liver blood flow"}, {"measurement": "Plasma concentrations post 8 hr", "setting": "[1]", "value": "below the limit of quantitation"}, {"measurement": "CL", "setting": "[1]; IV 0.5 mg/kg, injectable water, listed as Compound 4 (#1), 0.5 mg/kg", "value": 33.6, "unit": "mL/min/kg"}, {"measurement": "AUCinf", "setting": "[1]; [13]", "value": 312, "unit": "ng·h/mL"}, {"measurement": "AUClast", "setting": "[1]; [13]", "value": 310, "unit": "ng·h/mL"}, {"measurement": "CL", "setting": "[1]; [13]", "value": 26.8, "unit": "mL/min/kg"}, {"measurement": "MRTlast", "setting": "[1]; [13]", "value": 54.8, "unit": "min"}, {"measurement": "Tmax", "setting": "[1]; PO 2.5 mg/kg via gavage, injectable water, listed as Compound 4 (#1), 2.5 mg/kg", "value": 45, "unit": "min"}, {"measurement": "AUCinf", "setting": "[1]; [14]", "value": 707, "unit": "ng·h/mL"}, {"measurement": "AUClast", "setting": "[1]; [14]", "value": 662, "unit": "ng·h/mL"}, {"measurement": "Cmax", "setting": "[1]; [14]", "value": 172, "unit": "ng/mL"}, {"measurement": "Tmax", "setting": "[1]; [14]", "value": 30, "unit": "min"}, {"measurement": "F", "setting": "[1]; listed as Compound 4 (#1)", "value": 77.8, "unit": "%"}, {"measurement": "F", "setting": "[1]; listed as Compound 4 (#2)", "value": 45.4, "unit": "%"}, {"measurement": "Kp at 1 h", "setting": "[2]; Sprague-Dawley, rat", "value": 0.04}, {"measurement": "Ki", "setting": "A2A receptor", "value": 2, "unit": "nM"}]}]}
